Laboratory results reported in ChEMBL document CHEMBL4840342, “The spectrum between substrates and inhibitors: Pinpointing the binding mode of dengue protease ligands with modulated basicity and hydrophobicity” (Bioorg Med Chem, 2021).
Residues, ends and D or L forms follow the SMILES beside them. *: point of attachment. NHBn = c1ccc(CN*)cc1; Bz = O=C(c1ccccc1)*; NHiPr = CC(C)N*

Assays:
[1] = molecular target: Genome polyprotein (dengue virus type 2) (UniProt P29990); experiment: Inhibition of Dengue virus 2 NS2B-NS3 protease using Abz-Nle-Lys-Arg-Arg-Ser-Tyr(3-NO2)-NH2 as substrate at 50 uM preincubated with enzyme for 15 mins followed by substrate addition and measured for 15 mins by FRET assay relative to control; conditions: time 30.0 min
Genome polyprotein = Genome polyprotein (dengue virus type 2, UniProt P29990); experiment: Inhibition of Dengue virus 2 NS2B-NS3 protease using Abz-Nle-Lys-Arg-Arg-Ser-Tyr(3-NO2)-NH2 as substrate preincubated with enzyme for 15 mins followed by substrate addition and measured for 15 mins by FRET assay relative to control

Row | Compound | inhibition [1] [%] | IC50 (Genome polyprotein) [µM]
1 | NCCCC[C@H](NC(=O)c1ccccc1)C(=O)N[C@@H](C(=O)N[C@@H](C(N)=O)C1CCCCC1)c1ccc(OCc2ccccc2)cc1 | 98 | 7.9
2 | NCCCC[C@H](NC(=O)c1ccccc1)C(=O)N[C@@H](Cc1ccc(N)cc1)C(=O)NCc1ccc(OCc2ccccc2)cc1 | < 20 | –
3 | CC[C@@H](C)[C@H](NC(=O)[C@H](NC(=O)[C@H](CCCCN)NC(=O)[C@H](CCCNC(=N)N)NC(=O)c1ccccc1)c1ccc(OCc2ccccc2)cc1)C(N)=O | 58.1 | –
4 | N=C(N)Nc1ccc(C[C@H](NC(=O)[C@@H](NC(=O)c2ccccc2)c2ccc(OCc3ccccc3)cc2)C(=O)N[C@@H](C(N)=O)c2ccc(OCc3ccccc3)cc2)cc1 | 101 | 1.7
5 | N=C(N)NCCC[C@H](NC(=O)c1ccccc1)C(=O)N[C@@H](CCCCN)C(=O)N[C@@H](C(=O)NCc1ccc(C(N)=O)cc1)c1ccc(OCc2ccccc2)cc1 | 103 | 0.4
6 | N=C(N)NCCC[C@H](NC(=O)c1ccccc1)C(=O)N[C@@H](CCCCN)C(=O)NCCc1ccc(OCc2ccccc2)cc1 | 63.9 | –
7 | N=C(N)NCCC[C@H](NC(=O)c1ccccc1)C(=O)N[C@H](Cc1ccc(N)cc1)C(=O)NCc1ccc(OCc2ccccc2)cc1 | 29.1 | –
8 | N=C(N)NCCC[C@H](NC(=O)c1ccccc1)C(=O)N[C@@H](CCCCN)C(=O)N[C@@H](C(=O)N[C@H](C(N)=O)C1CCCCC1)c1ccc(OCc2ccccc2)cc1 | 95.9 | 13.7
9 | NCCCC[C@H](NC(=O)[C@@H](NC(=O)c1ccccc1)c1ccc(OCc2ccccc2)cc1)C(=O)N[C@@H](C(N)=O)c1ccc(OCc2ccccc2)cc1 | 98.8 | 6.6
10 | N=C(N)NCCC[C@H](NC(=O)c1ccccc1)C(=O)N[C@@H](Cc1ccc(N)cc1)C(=O)NCc1ccc(OCc2ccccc2)cc1 | 69.3 | –
11 | N=C(N)NCCC[C@H](NC(=O)c1ccccc1)C(=O)N[C@@H](CCCCN)C(=O)Nc1ccc(OCc2ccccc2)cc1 | 59.8 | –
12 | N=C(N)NCCC[C@H](NC(=O)c1ccccc1)C(=O)N[C@@H](CCCCN)C(=O)NCc1ccccc1 (Bz-Arg-Lys-NHBn) | 41.3 | –
13 | NCCCC[C@H](NC(=O)c1ccccc1)C(=O)N[C@H](Cc1ccc(N)cc1)C(=O)NCc1ccc(OCc2ccccc2)cc1 | 94.5 | 35.8
14 | N=C(N)NCCC[C@H](NC(=O)c1ccccc1)C(=O)N[C@@H](CCCCN)C(=O)NCc1ccc(OCc2ccccc2)cc1 | 63.3 | –
15 | NCCCC[C@H](NC(=O)c1ccccc1)C(=O)N[C@@H](C(=O)N[C@H](C(N)=O)C1CCCCC1)c1ccc(OCc2ccccc2)cc1 | 99.6 | 9.4
16 | N=C(N)NCCC[C@H](NC(=O)c1ccccc1)C(=O)N[C@@H](CCCCN)C(=O)N[C@@H](C(=O)NCc1ccc(CN)cc1)c1ccc(OCc2ccccc2)cc1 | 99.7 | 0.3
17 | NCCCC[C@H](NC(=O)c1ccccc1)C(=O)N[C@H](C(=O)N[C@H](C(N)=O)C1CCCCC1)c1ccc(OCc2ccccc2)cc1 | 93.1 | 9.9
18 | CC(C)NC(=O)[C@H](CCCCN)NC(=O)[C@H](CCCNC(=N)N)NC(=O)c1ccccc1 (Bz-Arg-Lys-NHiPr) | 28.8 | –
